Where “and” joins values, the source holds several entries; their conditions need not be identical. Equal entries are not always repeated.
Tests used:
beta amyloid production = experiment: Repressor Release Assay (RRA); assay type: cell-based; details: for fold induction at 10 µg/mL / APPI Fold Increase / APPI % of Example #98: Conc 10 μg/ml; for fold induction at 20 µg/mL: Conc 20 μg/ml; for APPI % of Example #98: relative to Example 98
In short: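 Read-out is luciferase luminescence (RLU) after 36-48 h duplicate compound exposure of transfected CHO-K1 cells. These cells carry transiently introduced APP-lacI and pRSVO-luc DNA. Diluent control was 25 mM Hepes/1% DMSO; toxicity recorded as binary score (1 non-toxic, 0 toxic).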

CHO-K1 cells = experiment: Toxicity in RRA (loss of luciferase signal); details: toxicity = loss of signal (<0.75 fold increase)
Procedure: The beta amyloid inhibitory activity of the compounds of the present invention was determined using the Repressor Release Assay (RRA).
“Fold Increase” refers to the amount of luciferase activity (measured in relative light units) over diluent control. “SEM” refers to the standard error of the mean for fold increase.

[1] = luciferase activity over diluent control, read-out: APPI Fold Increase
[2] = luciferase activity over diluent control

C/C=C(\C)C(O)(/C(C)=C/C)[C@@H](NS(=O)(=O)c1ccc(Cl)cc1)[C@@H](C)CC (stereo partly drawn) [Example 232, 4-chloro-N-{(1S,3E)-2-hydroxy-3-methyl-2-[(1E)-1-methyl-1-propenyl]-1-[(1S)-1-methylpropyl]-3-pentenyl}benzenesulfonamide]
fold induction at 10 µg/mL (beta amyloid production; [1]): 1.94
fold induction at 20 µg/mL (beta amyloid production; [1]): 4.2
(%)APPI Toxicity (CHO-K1 cells; Conc 10 μg/ml): 1 (1=non-toxic)
(%)APPI Toxicity (CHO-K1 cells; Conc 20 μg/ml): 1 (1=non-toxic)

C=CCCC(O)(CCC=C)[C@@H](NS(=O)(=O)c1ccc(Cl)cc1)[C@@H](C)CC [Example 233, N-{(1S)-2-(3-butenyl)-2-hydroxy-1-[(1S)-1-methylpropyl]-5-hexenyl}-4-chlorobenzenesulfonamide]
fold induction at 10 µg/mL (beta amyloid production; [1]): 6.67
(%)APPI Toxicity (CHO-K1 cells; Conc 10 μg/ml): 1 (1=non-toxic)

CC[C@H](C)[C@H](NS(=O)(=O)c1ccc(Cl)cc1)C(O)(c1cccc2ccccc12)c1cccc2ccccc12 [Example 234, 4-chloro-N-((1S,2S)-1-{hydroxy[di(1-naphthyl)]methyl}-2-methylbutyl) benzenesulfonamide]
APPI Fold Increase (beta amyloid production; [2]): 2.9 fold and 1.6 fold
(%)APPI Toxicity (CHO-K1 cells; Conc 10 μg/ml): 1 (1=non-toxic)

CC[C@H](C)[C@H](NS(=O)(=O)c1ccc(F)cc1)C(C)(C)O [Example 235, 4-fluoro-N-[(1S,2S)-1-(1-hydroxy-1-methylethyl)-2-methylbutyl]benzenesulfonamide]
fold induction at 10 µg/mL (beta amyloid production; [1]): 1.88
(%)APPI Toxicity (CHO-K1 cells; Conc 10 μg/ml): 1 (1=non-toxic)

CCCCCC(O)(CCCCC)[C@@H](NS(=O)(=O)c1ccc(F)cc1)[C@@H](C)CC [Example 237, 4-fluoro-N-{(1S)-2-hydroxy-1-[(1S)-1-methylpropyl]-2-pentylheptyl}benzenesulfonamide]
fold induction at 10 µg/mL (beta amyloid production; [1]): 6.05
(%)APPI Toxicity (CHO-K1 cells; Conc 10 μg/ml): 1 (1=non-toxic)

CCCCC(O)(CCCC)[C@@H](NS(=O)(=O)c1ccc(F)cc1)[C@@H](C)CC [Example 238, N-{(1S)-2-butyl-2-hydroxy-1-[(1S)-1-methylpropyl]hexyl}-4-fluorobenzenesulfonamide]
fold induction at 10 µg/mL (beta amyloid production; [1]): 4.5
(%)APPI Toxicity (CHO-K1 cells; Conc 10 μg/ml): 1 (1=non-toxic)

CC[C@H](C)[C@H](NS(=O)(=O)c1ccc(F)cc1)C(O)(C(C)C)C(C)C [Example 239, 4-fluoro-N-{(1S)-2-hydroxy-2-isopropyl-3-methyl-1-[(1S)-1-methylpropyl]butyl}benzenesulfonamide]
fold induction at 10 µg/mL (beta amyloid production; [1]): 1.54
(%)APPI Toxicity (CHO-K1 cells; Conc 10 μg/ml): 1 (1=non-toxic)

CC[C@H](C)[C@H](NS(=O)(=O)c1ccc(F)cc1)C(O)(CC(C)C)CC(C)C [Example 240, 4-fluoro-N-{(1S)-2-hydroxy-2-isobutyl-4-methyl-1-[(1S)-1-methylpropyl]pentyl}benzenesulfonamide]
fold induction at 10 µg/mL (beta amyloid production; [1]): 3.82
(%)APPI Toxicity (CHO-K1 cells; Conc 10 μg/ml): 1 (1=non-toxic)

C=CCC(O)(CC=C)[C@@H](NS(=O)(=O)c1ccc(F)cc1)[C@@H](C)CC [Example 241, N-{(1S)-2-allyl-2-hydroxy-1-[(1S)-1-methylpropyl]-4-pentenyl}-4-fluoro benzenesulfonamide]
APPI Fold Increase (beta amyloid production; [2]): 1.58 fold
APPI % of Example #98 (beta amyloid production): 72.82%
(%)APPI Toxicity (CHO-K1 cells; Conc 10 μg/ml): 1 (1=non-toxic)

CC[C@H](C)[C@H](NS(=O)(=O)c1ccc(F)cc1)C(O)(CC)CC [Example 242, N-{(1S)-2-ethyl-2-hydroxy-1-[(1S)-1-methylpropyl]butyl}-4-fluorobenzenesulfonamide]
fold induction at 10 µg/mL (beta amyloid production; [1]): 1.6
(%)APPI Toxicity (CHO-K1 cells; Conc 10 μg/ml): 1 (1=non-toxic)

C=C(C)C(O)(C(=C)C)[C@@H](NS(=O)(=O)c1ccc(F)cc1)[C@@H](C)CC [Example 243, 4-fluoro-N-{(1S)-2-hydroxy-2-isopropenyl-3-methyl-1-[(1S)-1-methylpropyl]-3-butenyl}benzenesulfonamide]
fold induction at 10 µg/mL (beta amyloid production; [1]): 1.7
(%)APPI Toxicity (CHO-K1 cells; Conc 10 μg/ml): 1 (1=non-toxic)

CC[C@H](C)[C@H](NS(=O)(=O)c1ccc(F)cc1)C(O)(c1ccc(OC)cc1)c1ccc(OC)cc1 [Example 244, 4-fluoro-N-((1S,2S)-1-{hydroxy[bis(4-methoxyphenyl)]methyl}-2-methylbutyl) benzenesulfonamide]
APPI Fold Increase (beta amyloid production; [2]): 1.51 fold
APPI % of Example #98 (beta amyloid production): 69.29%
(%)APPI Toxicity (CHO-K1 cells; Conc 10 μg/ml): 1 (1=non-toxic)

C/C=C(\C)C(O)(/C(C)=C/C)[C@@H](NS(=O)(=O)c1ccc(F)cc1)[C@@H](C)CC (stereo partly drawn) [Example 245, 4-fluoro-N-{(1S,3E)-2-hydroxy-3-methyl-2-[(1E)-1-methyl-1-propenyl]-1-[(1S)-1-methylpropyl]-3-pentenyl}benzenesulfonamide]
fold induction at 10 µg/mL (beta amyloid production; [1]): 2.05
fold induction at 20 µg/mL (beta amyloid production; [1]): 3.5
(%)APPI Toxicity (CHO-K1 cells; Conc 10 μg/ml): 1 (1=non-toxic)
(%)APPI Toxicity (CHO-K1 cells; Conc 20 μg/ml): 1 (1=non-toxic)

C=CCCC(O)(CCC=C)[C@@H](NS(=O)(=O)c1ccc(F)cc1)[C@@H](C)CC [Example 246, N-{(1S)-2-(3-butenyl)-2-hydroxy-1-[(1S)-1-methylpropyl]-5-hexenyl}-4-fluorobenzenesulfonamide]
fold induction at 10 µg/mL (beta amyloid production; [1]): 2.42
fold induction at 20 µg/mL (beta amyloid production; [1]): 1.9
(%)APPI Toxicity (CHO-K1 cells; Conc 10 μg/ml): 1 (1=non-toxic)
(%)APPI Toxicity (CHO-K1 cells; Conc 20 μg/ml): 1 (1=non-toxic)

CC[C@H](C)[C@H](NS(=O)(=O)c1ccc(F)cc1)C(O)(c1ccc(N(C)C)cc1)c1ccc(N(C)C)cc1 [Example 247, N-{(1S,2S)-1-[bis[4-(dimethylamino)phenyl](hydroxy)methyl]-2-methylbutyl}-4-fluorobenzenesulfonamide]
fold induction at 10 µg/mL (beta amyloid production; [1]): 1.54
(%)APPI Toxicity (CHO-K1 cells; Conc 10 μg/ml): 1 (1=non-toxic)

CCCCCCC(O)(CCCCCC)[C@@H](NS(=O)(=O)c1cccc(Cl)c1)[C@@H](C)CC [Example 249, 3-chloro-N-{(1S)-2-hexyl-2-hydroxy-1-[(1S)-1-methylpropyl]octyl}benzenesulfonamide]
fold induction at 10 µg/mL (beta amyloid production; [1]): 1.9
(%)APPI Toxicity (CHO-K1 cells; Conc 10 μg/ml): 1 (1=non-toxic)

CCCCCC(O)(CCCCC)[C@@H](NS(=O)(=O)c1cccc(Cl)c1)[C@@H](C)CC [Example 250, 3-chloro-N-{(1S)-2-hydroxy-1-[(1S)-1-methylpropyl]-2-pentylheptyl}benzenesulfonamide]
fold induction at 10 µg/mL (beta amyloid production; [1]): 2.4
(%)APPI Toxicity (CHO-K1 cells; Conc 10 μg/ml): 1 (1=non-toxic)

CCCCC(O)(CCCC)[C@@H](NS(=O)(=O)c1cccc(Cl)c1)[C@@H](C)CC [Example 251, N-{(1S)-2-butyl-2-hydroxy-1-[(1S)-1-methylpropyl]hexyl}-3-chlorobenzenesulfonamide]
fold induction at 10 µg/mL (beta amyloid production; [1]): 3.4
(%)APPI Toxicity (CHO-K1 cells; Conc 10 μg/ml): 1 (1=non-toxic)

CC[C@H](C)[C@H](NS(=O)(=O)c1cccc(Cl)c1)C(O)(CC(C)C)CC(C)C [Example 252, 3-chloro-N-{(1S)-2-hydroxy-2-isobutyl-4-methyl-1-[(1S)-1-methylpropyl]pentyl}benzenesulfonamide]
fold induction at 10 µg/mL (beta amyloid production; [1]): 1.8
(%)APPI Toxicity (CHO-K1 cells; Conc 10 μg/ml): 1 (1=non-toxic)

CC[C@H](C)[C@H](NS(=O)(=O)c1cccc(Cl)c1)C(O)(c1ccccc1)c1ccccc1 [Example 253, 3-chloro-N-{(1S,2S)-1-[hydroxy(diphenyl)methyl]-2-methylbutyl}benzenesulfonamide]
fold induction at 10 µg/mL (beta amyloid production; [1]): 1.61
(%)APPI Toxicity (CHO-K1 cells; Conc 10 μg/ml): 1 (1=non-toxic)

C=CCC(O)(CC=C)[C@@H](NS(=O)(=O)c1cccc(Cl)c1)[C@@H](C)CC [Example 254, N-{(1S)-2-allyl-2-hydroxy-1-[(1S)-1-methylpropyl]-4-pentenyl}-3-chloro benzenesulfonamide]
APPI Fold Increase (beta amyloid production; [2]): 1.93 fold
APPI % of Example #98 (beta amyloid production): 71.92%
(%)APPI Toxicity (CHO-K1 cells; Conc 10 μg/ml): 1 (1=non-toxic)

CC[C@H](C)[C@H](NS(=O)(=O)c1cccc(Cl)c1)C(O)(CC)CC [Example 255, 3-chloro-N-{(1S)-2-ethyl-2-hydroxy-1-[(1S)-1-methylpropyl]butyl}benzenesulfonamide]
fold induction at 10 µg/mL (beta amyloid production; [1]): 2.03
(%)APPI Toxicity (CHO-K1 cells; Conc 10 μg/ml): 1 (1=non-toxic)

CC[C@H](C)[C@H](NS(=O)(=O)c1cccc(Cl)c1)C(O)(c1ccc(Cl)cc1)c1ccc(Cl)cc1 [Example 256, N-{(1S,2S)-1-[bis(4-chlorophenyl)(hydroxy)methyl]-2-methylbutyl}-3-chloro benzenesulfonamide]
APPI Fold Increase (beta amyloid production; [2]): 1.5 fold
APPI % of Example #98 (beta amyloid production): 55.91%
(%)APPI Toxicity (CHO-K1 cells; Conc 10 μg/ml): 1 (1=non-toxic)

CC[C@H](C)[C@H](NS(=O)(=O)c1cccc(Cl)c1)C(O)(c1ccc(OC)cc1)c1ccc(OC)cc1 [Example 258, 3-chloro-N-((1S,2S)-1-{hydroxy [bis(4-methoxyphenyl)]methyl}-2-methylbutyl)benzenesulfonamide]
fold induction at 10 µg/mL (beta amyloid production; [1]): 1.72
(%)APPI Toxicity (CHO-K1 cells; Conc 10 μg/ml): 1 (1=non-toxic)

C=CCCC(O)(CCC=C)[C@@H](NS(=O)(=O)c1cccc(Cl)c1)[C@@H](C)CC [Example 260, N-{(1S)-2-(3-butenyl)-2-hydroxy-1-[(1S)-1-methylpropyl]-5-hexenyl}-3-chlorobenzenesulfonamide]
fold induction at 3 µg/mL (beta amyloid production; Conc 3 μg/ml, luciferase activity over diluent control, read-out: APPI Fold Increase): 1.5
fold induction at 10 µg/mL (beta amyloid production; [1]): 6.23
(%)APPI Toxicity (CHO-K1 cells; Conc 3 μg/ml): 1 (1=non-toxic)
(%)APPI Toxicity (CHO-K1 cells; Conc 10 μg/ml): 1 (1=non-toxic)

CCCCCCC(O)(CCCCCC)[C@@H](NS(=O)(=O)c1ccccc1F)[C@@H](C)CC [Example 261, 2-fluoro-N-{(1S)-2-hexyl-2-hydroxy-1-[(18)-1-methylpropyl]octyl}benzenesulfonamide]
APPI Fold Increase (beta amyloid production; [2]): 3.5 fold
APPI % of Example #98 (beta amyloid production): 104.4%
(%)APPI Toxicity (CHO-K1 cells; Conc 10 μg/ml): 1 (1=non-toxic)

CCCCCC(O)(CCCCC)[C@@H](NS(=O)(=O)c1ccccc1F)[C@@H](C)CC [Example 262, 2-fluoro-N-{(1S)-2-hydroxy-1-[(1S)-1-methylpropyl]-2-pentylheptyl}benzenesulfonamide]
fold induction at 10 µg/mL (beta amyloid production; [1]): 2.2
(%)APPI Toxicity (CHO-K1 cells; Conc 10 μg/ml): 1 (1=non-toxic)

CC[C@H](C)[C@H](NS(=O)(=O)c1ccccc1F)C(O)(c1ccccc1)c1ccccc1 [Example 263, 2-fluoro-N-{(1S,2 S)-1-[hydroxy (diphenyl)methyl]-2-methylbutyl}benzenesulfonamide]
fold induction at 10 µg/mL (beta amyloid production; [1]): 1.57
(%)APPI Toxicity (CHO-K1 cells; Conc 10 μg/ml): 1 (1=non-toxic)

Reference: patent US7166622B2, “Substituted phenylsulfonamide inhibitors of beta amyloid production” (Wyeth, priority 2002, dated 2007)
